From patent US20240246960A1 (adMare Therapeutics Society, priority 2021, published 2024)
Where two headings read alike, the source gives them in different places.

Experiments:
DNA-PK = biological target: T1, DNA-PK (Homo sapiens, UniProt P78527); assay: DNA-PK Assay for Biochemical Enzymatic Inhibition (ADP Glo Kinase assay); settings: Table 1
T1 construct: purchased Invitrogen PR9107A
Summary of the method: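 Human DNA-PK (25 ng) preincubated 15 min with compounds (ten three-fold dilutions) in HEPES pH 7.5, MgCl2, KCl, calf thymus DNA buffer, then substrate 434.4 μM and ATP 64.4 μM (final) for 60 min at room temperature. ADP-Glo luminescence; percent inhibition fitted by four-parameter regression for IC50.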

[1] = biological target: T2, DNA-PK phosphorylation at Serine 2056 (Homo sapiens, UniProt P78527); assay: Cellular Assay for Inhibition of DNA-PK Phosphorylation at Serine 2056 (FaDu cells, neocarzinostatin, sandwich ELISA); type: cell-based; settings: Table 1
T2 construct: host or cells: FaDu
Summary of the method: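 FaDu cells were pretreated with compound (0.3% DMSO) for 1 h, then exposed to neocarzinostatin at 1 μg/mL final for 2 h to induce DSBs. Protein-normalized lysates were assayed by MSD sandwich ELISA for total and pSer2056 DNA-PK. IC50 came from variable-slope fits of % inhibition relative to DMSO and NCS controls.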

[2] = biological target: T3, pDNA-PK ser2056 induction in HCT116 spheroids (Homo sapiens, UniProt P78527); assay: Multicellular tumour spheroid + radiation, pDNA-PK inhibition, HCT116; type: cell-based; settings: 20 Gy
T3 construct: endogenous in cells; host or cells: HCT116 multicellular tumour spheroids
Experimental: Multicellular tumour spheroids determination of compound inhibition of pDNA-PK induction following radiation. Tumour spheroids were grown to approximately 0.5 mm in diameter and irradiated with 20 Gy in combination with inhibitor test compounds to determine their potency. Inhibitor concentration for 50% reduction in pDNA-PK induction (IC50) was determined via immunohistochemical staining in spheroid cryosections taken 2 hours following radiation.
Spheroid, Cell Line: […], Immunohistochemical endpoint, pDNA-PK inhibition, EC50 in μm.
(§1) Spheroid+radiation pDNA-PK. Radiation: 20 Gy. Drug: serial dilution 5 or 10 μM down to 3.5 nM (11 wells). Spheroids: 3-6 spheroids per well (300-500 μm diameter). 20% O2 and 5% CO2. 96 well plate format.
Protocol: pre-incubate 1 hours with drug, irradiate with 20 Gy, post-incubate 2 hours with drug, freeze and cryosection ×3 replicates.
Endpoint: fluorescent immunostin pDNA-PK ser2056 and image on microscope.
Analysis: determine EC50 concentration that decreases pDNA-PK induction by 50% after radiation.
Multicellular tumour spheroids determination of compound inhibition of pDNA-PK induction following radiation. Tumour spheroids were grown to approximately 0.5 mm in diameter and irradiated with 20 Gy in combination with inhibitor test compounds to determine their potency. Inhibitor concentration for 50% reduction in pDNA-PK induction (IC50) was determined via immunohistochemical staining in spheroid cryosections taken 2 hours following radiation. For cell survival endpoint 8 Gy radiation was used and 3 hours following radiation spheroids were dissociated, counted and plated for colony forming endpoint.
as §1, with “format. Endpoint: fluorescent immunostain pDNA-PK ser2056 and image on microscope. Analysis: determine EC50 concentrations that decreases pDNA-PK induction […] after irradiation.” for “format.”
Multicellular tumour spheroids were used to determine potency of test compounds in a 3D tissue environment using inhibition of pDNA-PK induction following radiation or cell survival as the endpoint. For the pDNA-PK endpoint HCT116 or FaDU tumour spheroids were grown to approximately 0.5 mm in diameter and irradiated with 20 Gy in combination with inhibitor test compounds to determine their potency. Experiments were carried out in 96 well plates containing 0.7 mls of MEM media containing 10% FBS and 10 mM glucose under 20% O2 & 5% CO2 at 37° C. Following dilution of compounds 1:1000 from DMSO stocks, compounds were serially diluted from 10 μM down to 3.5 nM and 5-10 spheroids added. 96 well plates were constantly stirred to avoid spheroids settling during the course of the experiment. The inhibitor concentration for 50% reduction in pDNA-PK induction (EC50) was determined via immunohistochemical staining in spheroid cryosections taken 2 hours following radiation using anti-pDNA-PK (ser 2056) and fixed immediately in formalin following sectioning. For cell survival endpoint 8 Gy radiation was used and, 3 hours following radiation, spheroids were dissociated, counted and plated for colony forming endpoint. Data presented in the table compound potency as EC50 [μM].

[3] = Microsomal stability assay, mouse liver microsomes; settings: for microsomal CLint at 0.1 uM: male, CD-1, mouse, liver microsomes, pH 7.4, Microsomal Stability Mouse Clint, 0.1 mg/mL microsomes, 0.1 uM compound
[4] = Example 7, spheroid, cell line HCT115 [sic], 20% O2, read-out: EC50 (pDNA-PK inhibition, immunohistochemical endpoint)
[5] = Example 8, spheroid, read-out: Cell line: HCT116 Immunohistochemical endpoint pDNA-PK inhibition EC50
[6] = Example 9 Study 2, 20% O2, read-out: Spheroid Cell line: HCT116 Immunohistochemical endpoint pDNA-PK inhibition EC50

O=C(N[C@H]1CC[C@@H](Oc2nc(N3CCOCC3)cc3ncccc23)CC1)N1CCOCC1 [Compound 14, N-((1s,4s)-4-((7-morpholino-1,6-naphthyridin-5-yl)oxy)cyclohexyl)morpholine-4-carboxamide]
IC50 (DNA-PK): 0.001 to 0.01 µM
IC50 [1]: 0.1 to 1 µM
EC50 [2, 4]: 1 to 10 µM
EC50 [2, 5]: 1 to 10 µM
EC50 [2, 6]: 1 to 10 µM
Microsomal Stability (mouse) % rem. 60 min [3]: G (% remaining = 50-75%)
microsomal CLint at 0.1 uM [3]: < 116 µL/min/mg

FC(F)(F)c1cnn([C@H]2CC[C@@H](Oc3nc(N4CCOCC4)cc4ncccc34)CC2)c1 [Compound 17b, 4-(5-(((1s,4s)-4-(4-(trifluoromethyl)-1H-pyrazol-1-yl)cyclohexyl)oxy)-1,6-naphthyridin-7-yl)morpholine]
IC50 (DNA-PK): 0.01 to 0.15 µM
Microsomal Stability (mouse) % rem. 60 min [3]: E (% remaining = 0-25%)
microsomal CLint at 0.1 uM [3]: > 116 µL/min/mg

Cc1nn([C@H]2CC[C@@H](Oc3nc(N4CCOCC4)cc4ncccc34)CC2)cc1C(F)(F)F [Compound 17g, 4-(5-(((1s,4s)-4-(3-methyl-4-(trifluoromethyl)-1H-pyrazol-1-yl)cyclohexyl)oxy)-1,6-naphthyridin-7-yl)morpholine]
IC50 (DNA-PK): 0.001 to 0.01 µM
IC50 [1]: 1 to 10 µM
Microsomal Stability (mouse) % rem. 60 min [3]: E (% remaining = 0-25%)
microsomal CLint at 0.1 uM [3]: > 116 µL/min/mg

c1cnc2cc(N3CCOCC3)nc(O[C@H]3CC[C@@H](n4ncnn4)CC3)c2c1 [Compound 17m, 4-(5-(((1s,4s)-4-(2H-tetrazol-2-yl)cyclohexyl)oxy)-1,6-naphthyridin-7-yl)morpholine]
IC50 (DNA-PK): 0.001 to 0.01 µM
IC50 [1]: 0.1 to 1 µM
EC50 [2, 4]: 1 to 10 µM
EC50 [2, 5]: 1 to 10 µM
EC50 [2, 6]: 1 to 10 µM
Microsomal Stability (mouse) % rem. 60 min [3]: E (% remaining = 0-25%)
microsomal CLint at 0.1 uM [3]: > 116 µL/min/mg

Brc1cnc2cc(N3CCOCC3)nc(O[C@H]3CC[C@@H](Nc4ncccn4)CC3)c2c1 [Compound 18a, N-((1s,4s)-4-((3-Bromo-7-morpholino-1,6-naphthyridin-5-yl)oxy)cyclohexyl)pyrimidin-2-amine]
IC50 (DNA-PK): 0.001 to 0.01 µM
IC50 [1]: 0.1 to 1 µM
EC50 [2, 4]: 1 to 10 µM
EC50 [2, 5]: 1 to 10 µM
EC50 [2, 6]: 1 to 10 µM
Microsomal Stability (mouse) % rem. 60 min [3]: E (% remaining = 0-25%)
microsomal CLint at 0.1 uM [3]: > 116 µL/min/mg

COc1cnc(N[C@H]2CC[C@@H](Oc3nc(N4CCOCC4)cc4ncccc34)CC2)nc1 [Compound 20c, 5-Methoxy-N-((1s,4s)-4-((7-morpholino-1,6-naphthyridin-5-yl)oxy)cyclohexyl)pyrimidin-2-amine]
IC50 (DNA-PK): 0.001 to 0.01 µM
IC50 [1]: < 0.1 µM
EC50 [2, 4]: 0.5 to 1 µM
EC50 [2, 5]: 0.5 to 1 µM
EC50 [2, 6]: 0.5 to 1 µM
Microsomal Stability (mouse) % rem. 60 min [3]: E (% remaining = 0-25%)
microsomal CLint at 0.1 uM [3]: > 116 µL/min/mg

c1cnc(N[C@H]2CC[C@H](Oc3nc(N4CCOCC4)cc4ncccc34)CC2)nc1 [Compound 24, N-((1r,4r)-4-((7-morpholino-1,6-naphthyridin-5-yl)oxy)cyclohexyl)pyrimidin-2-amine]
IC50 (DNA-PK): 0.01 to 0.15 µM
Microsomal Stability (mouse) % rem. 60 min [3]: F (% remaining = 25-50%)
microsomal CLint at 0.1 uM [3]: > 116 µL/min/mg

c1cncc(N[C@H]2CC[C@@H](Oc3nc(N4CCOCC4)cc4ncccc34)CC2)c1 [Compound 26, N-((1s,4s)-4-((7-morpholino-1,6-naphthyridin-5-yl)oxy)cyclohexyl)pyridin-3-amine]
IC50 (DNA-PK): 0.0005 to 0.001 µM
IC50 [1]: 0.1 to 1 µM
EC50 [2, 4]: 1 to 10 µM
EC50 [2, 5]: 1 to 10 µM
EC50 [2, 6]: 1 to 10 µM
Microsomal Stability (mouse) % rem. 60 min [3]: E (% remaining = 0-25%)
microsomal CLint at 0.1 uM [3]: > 116 µL/min/mg

c1cnnc(N[C@H]2CC[C@@H](Oc3nc(N4CCOCC4)cc4ncccc34)CC2)c1 [Compound 29, N-((1s,4s)-4-((7-morpholino-1,6-naphthyridin-5-yl)oxy)cyclohexyl)pyridazin-3-amine]
IC50 (DNA-PK): < 0.0005 µM
IC50 [1]: < 0.1 µM
EC50 [2, 4]: 0.5 to 1 µM
EC50 [2, 6]: 0.5 to 1 µM
Microsomal Stability (mouse) % rem. 60 min [3]: E (% remaining = 0-25%)
microsomal CLint at 0.1 uM [3]: > 116 µL/min/mg

O=C(N[C@H]1CC[C@@H](Oc2nc(N3CCOCC3)cc3ncccc23)CC1)C1CC1 [Compound 108, N-((1s,4s)-4-((7-Morpholino-1,6-naphthyridin-5-yl)oxy)cyclohexyl)cyclopropanecarboxamide]
IC50 (DNA-PK): 0.001 to 0.01 µM
IC50 [1]: 0.1 to 1 µM
EC50 [2, 4]: 1 to 10 µM
EC50 [2, 5]: 1 to 10 µM
EC50 [2, 6]: 1 to 10 µM
Microsomal Stability (mouse) % rem. 60 min [3]: E (% remaining = 0-25%)
microsomal CLint at 0.1 uM [3]: > 116 µL/min/mg

O=C(N[C@H]1CC[C@@H](Oc2nc(N3CCOCC3)cc3ncccc23)CC1)C1(O)CC1 [Compound 109, 1-Hydroxy-N-((1s,4s)-4-((7-morpholino-1,6-naphthyridin-5-yl)oxy)cyclohexyl)cyclopropane-1-carboxamide]
IC50 (DNA-PK): 0.001 to 0.01 µM
IC50 [1]: 0.1 to 1 µM
EC50 [2, 4]: 10 to 100 µM
EC50 [2, 5]: 10 to 100 µM
EC50 [2, 6]: 10 to 100 µM
Microsomal Stability (mouse) % rem. 60 min [3]: E (% remaining = 0-25%)
microsomal CLint at 0.1 uM [3]: > 116 µL/min/mg

O=C(N[C@H]1CC[C@@H](Oc2nc(N3CCOCC3)cc3ncccc23)CC1)c1ccccn1 [Compound 114, N-((1s,4s)-4-((7-morpholino-1,6-naphthyridin-5-yl)oxy)cyclohexyl)picolinamide]
IC50 (DNA-PK): 0.0005 to 0.001 µM
IC50 [1]: 0.1 to 1 µM
EC50 [2, 4]: 1 to 10 µM
EC50 [2, 6]: 1 to 10 µM
Microsomal Stability (mouse) % rem. 60 min [3]: E (% remaining = 0-25%)
microsomal CLint at 0.1 uM [3]: > 116 µL/min/mg

O=C(N[C@H]1CC[C@@H](Oc2nc(N3CCOCC3)cc3ncccc23)CC1)c1ccc(Cl)nc1 [Compound 116, 6-chloro-N-((1s,4s)-4-((7-morpholino-1,6-naphthyridin-5-yl)oxy)cyclohexyl)nicotinamide]
IC50 (DNA-PK): 0.0005 to 0.001 µM
IC50 [1]: 0.1 to 1 µM
EC50 [2, 4]: 1 to 10 µM
EC50 [2, 6]: 1 to 10 µM
Microsomal Stability (mouse) % rem. 60 min [3]: F (% remaining = 25-50%)
microsomal CLint at 0.1 uM [3]: > 116 µL/min/mg

O=C(N[C@H]1CC[C@@H](Oc2nc(N3CCOCC3)cc3ncccc23)CC1)c1cnccn1 [Compound 119, N-((1s,4s)-4-((7-morpholino-1,6-naphthyridin-5-yl)oxy)cyclohexyl)pyrazine-2-carboxamide]
IC50 (DNA-PK): 0.0005 to 0.001 µM
IC50 [1]: 0.1 to 1 µM
EC50 [2, 4]: 1 to 10 µM
EC50 [2, 6]: 1 to 10 µM
Microsomal Stability (mouse) % rem. 60 min [3]: E (% remaining = 0-25%)
microsomal CLint at 0.1 uM [3]: > 116 µL/min/mg

O=C(N[C@H]1CC[C@@H](Oc2nc(N3CCOCC3)cc3ncccc23)CC1)c1ncc(Cl)cn1 [Compound 124, 5-chloro-N-((1s,4s)-4-((7-morpholino-1,6-naphthyridin-5-yl)oxy)cyclohexyl)pyrimidine-2-carboxamide]
IC50 (DNA-PK): 0.0005 to 0.001 µM
IC50 [1]: 0.1 to 1 µM
EC50 [2, 4]: 1 to 10 µM
EC50 [2, 6]: 1 to 10 µM
Microsomal Stability (mouse) % rem. 60 min [3]: F (% remaining = 25-50%)
microsomal CLint at 0.1 uM [3]: > 116 µL/min/mg

Cc1ccnc(C(=O)N[C@H]2CC[C@@H](Oc3nc(N4CCOCC4)cc4ncccc34)CC2)n1 [Compound 127]
IC50 (DNA-PK): 0.0005 to 0.001 µM
IC50 [1]: 0.1 to 1 µM
EC50 [2, 4]: 1 to 10 µM
EC50 [2, 6]: 1 to 10 µM
Microsomal Stability (mouse) % rem. 60 min [3]: F (% remaining = 25-50%)
microsomal CLint at 0.1 uM [3]: > 116 µL/min/mg
